Measured values from US12473324B2, “Triazine-based amphiphilic compound and use thereof” (INDUSTRY-UNIVERSITY COOPERATION FOUNDATION HANYANG …, priority 2019, dated 2025).

How the values were obtained:
[1] = test system: leucine transporter (LeuT); test: LeuT structural stability: [3H]-Leu binding by scintillation proximity assay (SPA); type: biochemical, Aquifex aeolicus; settings: CMC+0.04 wt % or CMC+0.2 wt %, room temperature, 13-day incubation, [3H]-Leu SPA
Protocol: Experiments were performed to measure the structural stability of the LeuT protein by TSMs, TTGs and TEMs. Each amphiphilic compound was used at a concentration of (a) CMC+0.04 wt % or (b) CMC+0.2 wt %, and the substrate binding properties of LeuT were measured using [^3H]-Leu via scintillation proximity assay (SPA). The measurement was performed at regular intervals over the course of a 13-day and 12-day incubation at room temperature, respectively.
Specifically, a wild-type leucine transporter (LeuT) derived from the thermophilic bacterium Aquifex aeolicus was purified by a previously described method (Nature 1998, 392, 353-358 by G. Deckert et al.). LeuT was expressed in E. coli C41 (DE3) transformed with pET16b encoding the C-terminal 8×His-tagged transporter (expression plasmids were provided from Dr E. Gouaux, Vollum Institute, Portland, Oregon, USA). In summary, after a bacterial membrane was isolated and solubilized in 1 wt % DDM, the protein was bound to Ni^2+-NTA resin (Life Technologies, Denmark), and eluted in 20 mM Tris-HCl (pH 8.0), 1 mM NaCl, 199 mM KCl, 0.05% (w/v) DDM and 300 mM imidazole. Then, the purified LeuT (0.5 mg/ml) was diluted with buffers supplemented with TSMs, TTGs, TEMs or DDM at a final concentration of CMC+0.04% (w/v) or CMC+0.2% (w/v) except for DDM and imidazole in the equivalent buffer described above. Protein samples were incubated at room temperature for 13 days, centrifuged at a specified time, and protein properties were confirmed by measuring [^3H]-Leucine binding ability using SPA. SPA was performed with 5 μL of each protein sample in a buffer containing 450 mM NaCl and each of TSMs and TEMs (or DDM). The SPA reaction was performed in the presence of 20 nM [^3H]-Leucine and 1.25 mg/ml copper chelate (His-Tag) YSi beads (PerkinElmer, Denmark). Overall [^3H]-Leucine coupling to each sample was measured using a MicroBeta liquid scintillation counter (Perkin Elmer).

BOR1-GFP fusion protein = test: AtBOR1 thermal stability, fluorescence size exclusion chromatography (FSEC); settings: 1% detergent, heated at 47° C. for 10 minutes
Protocol: Fluorescence size exclusion chromatography (FSEC): BOR1 of Arabidopsis thaliana was expressed in Saccharomyces cerevisiae FGY217 cells as a fusion protein having a C-terminal GFP tag. The cells were grown in a URA medium supplemented with 0.1% glucose. Protein expression was induced by adding 2% galactose, and then the cells were cultured at 20° C. for 18 hours as previously described. The cells were collected and used to prepare a membrane. The membrane including the BOR1-GFP fusion protein was diluted as follows. […] Samples were cultured while shaking at 4° C. for 1 hour, and then insoluble materials were removed by centrifugation at 14,000 g and 4° C. for 1 hour. A supernatant including the solubilized protein sample was heated at 47° C. for 10 minutes. After additional centrifugation to remove large aggregates, a 200 μl aliquot of the sample was injected into a Superose 6 10/300 column equilibrated with 20 mm Tris (pH 7.5), 150 mm NaCl and 0.03% DDM. The GFP fluorescence of each fraction was read using an excitation wavelength of 470 nm and an emission wavelength of 512 nm.

[2] = Hydrodynamic radius (Rh) of micelles by dynamic light scattering (DLS); type: physicochemical; settings: 1.0 wt % detergent
Protocol: A method of measuring the radius of micelle is not particularly limited, but a method widely known in the art may be used, and for example, the radius of micelle may be measured using a dynamic light scattering (DLS) experiment.
(§1) Specifically, the critical micelle concentrations (CMCs) were measured using a fluorescent dye, diphenylhexatriene (DPH), and the hydrodynamic radii (Rh) of micelles formed by each preparation (1.0 wt %) were determined by a dynamic light scattering (DLS) experiment. The measured results are shown in Table 1 compared to DDM which is an existing amphiphilic molecule (detergent).

[3] = Critical micelle concentration (CMC) by fluorescent dye diphenylhexatriene (DPH); type: physicochemical; settings: DPH fluorescence
Protocol: A method of measuring the CMC is not particularly limited, but a method widely known in the art may be used, and for example, the CMC may be measured by a fluorescent staining method using diphenylhexatriene (DPH).
as §1

[4] = molecular target: T1, Salmonella typhimurium melibiose permease (MelBSt) (Salmonella typhimurium, UniProt P30878); test: MelB extraction and thermal solubilization stability (SDS-PAGE, Western blotting); type: biochemical; settings: 1.5 wt % detergent, 90 minutes
T1 construct: made in house; host or cells: E. coli DW2 cells
Protocol: Experiments were performed to measure the structural stability of Salmonella typhimurium melibiose permease (MelBSt) protein by TSMs, TTGs and TEMs. After the MelB protein was extracted from the membrane using TSMs, TTGs, TEMs or DDM, the amount and structure of the extracted protein were analyzed by SDS-PAGE and Western blotting. The concentration of the amphiphilic compound used was 1.5 wt %, the protein was extracted at 0° C. for 90 minutes and then the extracted protein was incubated at three high temperatures (45, 55, and 65° C.) for an additional 90 minutes. By measuring the amount of protein remaining in a dissolved state in an aqueous solution of the extracted protein and the heat-treated protein, we tried to evaluate the performance of both the protein extraction efficiency and stabilization ability of the compound at the same time. […]
Specifically, Salmonella typhimurium melibiose permease (MelBSt) having a 10-His tag at the C-terminus was expressed in E. coli DW2 cells (βmelB and βlacZY) using a plasmid pK95βAHB/WT MelBSt/CH10. […] MelBSt was measured by an ImageQuant LAS 4000 Biomolecular Imager (GE Health Care Lifer Science) using a SuperSignal West Pico chemiluminescent substrate.

[5] = Solubility of detergent (Table 1); type: physicochemical
[6] = molecular target: human β2 adrenergic receptor (β2AR) (Homo sapiens, UniProt P07550); test: β2AR stability: [3H]-dihydroalprenolol (DHA) ligand binding assay; settings: CMC+0.2 wt %, room temperature, 6 days, [3H]-DHA
Protocol: Experiments were performed to measure the structural stability of the human β2 adrenergic receptor (β2AR) and G-protein-coupled receptor (GPCR) by TSMs, TTGs and TEMs. That is, a receptor purified by DDM was subjected to amphiphilic molecular exchange when diluted with a buffer solution containing only each of TSMs, TTGs and TEMs without cholesteryl hemisuccinate (CHS) or a buffer solution containing CHS and DDM. The final concentration of the amphiphilic molecule was CMC+0.2 wt %, and the ligand binding properties of the receptor were measured by binding of [^3H]-dihydroalprenolol ([^3H]-DHA). Specifically, the following method was used for a radioligand binding test. β2AR was purified using 0.1% DDM (D. M. Rosenbaum et al., Science, 2007, 318, 1266-1273.) and finally concentrated to about 10 mg/ml (about 200 μM). A master binding mixture containing 10 nM [^3H]-dihydroalprenolol (DHA) supplemented with 0.5 mg/ml BSA in 0.2% amphiphilic compounds (DDM, TSMs, TTGs or TEMs) was prepared using β2AR purified with DDM. Receptors purified with DDM, TSMs, TTGs or TEMs were incubated with 10 nM [^3H]-DHA at room temperature for 6 days. The mixture was loaded onto a G-50 column and a flow through was collected with 1 ml of a binding buffer (20 mM HEPES supplemented with 0.5 mg/ml BSA and 20×CMC each amphiphilic compound, pH 7.5, 100 mM NaCl), and filled with 15 ml of a scintillation fluid. Receptor-bound [^3H]-DHA was measured by a scintillation counter (Beckman). The binding of [^3H]-DHA is shown as a column graph.

μ-opioid receptor (MOR) = μ-opioid receptor (MOR) (Mus musculus, UniProt P42866); test: MOR thermal stability test (CPM dye, melting point Tm); type: biochemical; settings: 0.5 wt % compound, CPM fluorescence, 20° C. to 65° C.
Protocol: An N-[4-(7-diethylamino-4-methyl-3-coumarinyl)phenyl]maleimide (CPM) dye dissolved in DMSO (3 mg/ml) was diluted 40× in a buffer including 20 mM HEPES pH 7.5 and 150 mM NaCl. […] After 1 hour at room temperature, a compound was prepared at a final concentration of 0.5 wt % by diluting the receptor solution 2× in 20 mM HEPES pH 7.5, 150 mM NaCl. After […] of the diluted CPM dye was added thereto, the receptor stability of different compounds was measured by recording the fluorescence spectra (excitation 387 nm) every 5° C. from 20° C. to 65° C. while culturing at each temperature for 2 minutes. The melting point (Tm) was calculated by plotting the read value at 470 nm and fitting a non-linear regression curve using GraphPad Prism.

human β2 adrenergic receptor (β2AR), sequence (P07550 whole entry): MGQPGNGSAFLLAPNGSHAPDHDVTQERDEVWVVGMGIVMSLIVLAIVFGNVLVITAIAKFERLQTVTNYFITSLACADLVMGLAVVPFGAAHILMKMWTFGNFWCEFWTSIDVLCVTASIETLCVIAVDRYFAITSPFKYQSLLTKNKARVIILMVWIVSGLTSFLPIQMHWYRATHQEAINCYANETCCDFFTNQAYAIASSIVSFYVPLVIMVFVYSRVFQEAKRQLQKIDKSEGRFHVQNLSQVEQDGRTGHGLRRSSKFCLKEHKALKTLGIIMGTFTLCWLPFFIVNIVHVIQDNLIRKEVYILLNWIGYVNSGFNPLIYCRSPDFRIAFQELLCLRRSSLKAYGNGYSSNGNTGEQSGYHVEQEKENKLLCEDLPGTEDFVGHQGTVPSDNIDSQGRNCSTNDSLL
μ-opioid receptor (MOR), sequence (P42866 whole entry): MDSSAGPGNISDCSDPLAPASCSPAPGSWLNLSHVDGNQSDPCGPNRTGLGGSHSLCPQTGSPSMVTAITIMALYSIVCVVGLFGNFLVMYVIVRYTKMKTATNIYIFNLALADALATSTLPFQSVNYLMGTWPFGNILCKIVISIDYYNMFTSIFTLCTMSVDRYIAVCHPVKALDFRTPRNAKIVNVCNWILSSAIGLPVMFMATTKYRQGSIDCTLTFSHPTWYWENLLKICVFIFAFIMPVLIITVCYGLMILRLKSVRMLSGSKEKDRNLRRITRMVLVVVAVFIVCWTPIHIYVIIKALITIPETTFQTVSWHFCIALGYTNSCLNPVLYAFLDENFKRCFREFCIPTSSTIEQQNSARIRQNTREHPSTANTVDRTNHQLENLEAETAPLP
T1 sequence (P30878 whole entry): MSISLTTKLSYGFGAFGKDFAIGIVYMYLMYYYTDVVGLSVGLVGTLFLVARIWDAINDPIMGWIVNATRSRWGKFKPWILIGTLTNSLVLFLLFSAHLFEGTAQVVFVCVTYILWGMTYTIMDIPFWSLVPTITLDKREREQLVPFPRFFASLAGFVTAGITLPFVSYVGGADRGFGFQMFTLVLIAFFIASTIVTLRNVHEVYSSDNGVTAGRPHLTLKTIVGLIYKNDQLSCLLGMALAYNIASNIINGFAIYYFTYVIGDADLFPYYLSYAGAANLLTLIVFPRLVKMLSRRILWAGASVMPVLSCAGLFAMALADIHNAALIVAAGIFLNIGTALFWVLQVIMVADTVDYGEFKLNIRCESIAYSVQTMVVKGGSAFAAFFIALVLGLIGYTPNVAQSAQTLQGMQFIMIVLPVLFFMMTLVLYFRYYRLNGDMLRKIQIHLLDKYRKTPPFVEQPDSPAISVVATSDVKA

LeuT substrate binding properties over incubation [1] | Rh (nm) [2] | CMC [3] | solubility [5] | MOR melting point (Tm) (μ-opioid receptor (MOR)) | SMILES | AtBOR1 thermal stability by FSEC (protein peak vs aggregation peak) (BOR1-GFP fusion protein) | MelB protein extraction efficiency at 0° C. [4] | β2AR long-term ligand binding retention [6]
– | 8.7 ± 0.7 nm | ~0.004 mM | ~5% | 48.9 °C | CCCCCCCCCCOc1nc(NC(CO[C@@H]2O[C@H](CO)[C@@H](O[C@H]3O[C@H](CO)[C@@H](O)[C@H](O)[C@H]3O)[C@H](O)[C@H]2O)CO[C@@H]2O[C@H](CO)[C@@H](O[C@H]3O[C@H](CO)[C@@H](O)[C@H](O)[C@H]3O)[C@H](O)[C@H]2O)nc(OCCCCCCCCCC)n1 [TSM-E10] | – | – | better in maintaining the ligand binding ability of the receptor than DDM
– | 56.2 ± 9.9 nm | ~0.002 mM | ~1% | – | CCCCCCCCCCCOc1nc(NC(CO[C@@H]2O[C@H](CO)[C@@H](O[C@H]3O[C@H](CO)[C@@H](O)[C@H](O)[C@H]3O)[C@H](O)[C@H]2O)CO[C@@H]2O[C@H](CO)[C@@H](O[C@H]3O[C@H](CO)[C@@H](O)[C@H](O)[C@H]3O)[C@H](O)[C@H]2O)nc(OCCCCCCCCCCC)n1 [TSM-E11] | – | – | better in maintaining the ligand binding ability of the receptor than DDM
– | 3.6 ± 0.1 nm | ~0.01 mM | ~10% | – | CCCCCCCSc1nc(NC(CO[C@@H]2O[C@H](CO)[C@@H](O[C@H]3O[C@H](CO)[C@@H](O)[C@H](O)[C@H]3O)[C@H](O)[C@H]2O)CO[C@@H]2O[C@H](CO)[C@@H](O[C@H]3O[C@H](CO)[C@@H](O)[C@H](O)[C@H]3O)[C@H](O)[C@H]2O)nc(SCCCCCCC)n1 [TSM-T7] | – | – | better in maintaining the ligand binding ability of the receptor than DDM
– | 4.2 ± 0.0 nm | ~0.006 mM | ~10% | – | CCCCCCCCSc1nc(NC(CO[C@@H]2O[C@H](CO)[C@@H](O[C@H]3O[C@H](CO)[C@@H](O)[C@H](O)[C@H]3O)[C@H](O)[C@H]2O)CO[C@@H]2O[C@H](CO)[C@@H](O[C@H]3O[C@H](CO)[C@@H](O)[C@H](O)[C@H]3O)[C@H](O)[C@H]2O)nc(SCCCCCCCC)n1 [TSM-T8] | – | – | better in maintaining the ligand binding ability of the receptor than DDM
best substrate binding activity | 5.1 ± 0.1 nm | ~0.004 mM | ~10% | – | CCCCCCCCCSc1nc(NC(CO[C@@H]2O[C@H](CO)[C@@H](O[C@H]3O[C@H](CO)[C@@H](O)[C@H](O)[C@H]3O)[C@H](O)[C@H]2O)CO[C@@H]2O[C@H](CO)[C@@H](O[C@H]3O[C@H](CO)[C@@H](O)[C@H](O)[C@H]3O)[C@H](O)[C@H]2O)nc(SCCCCCCCCC)n1 [TSM-T9] | – | – | better in maintaining the ligand binding ability of the receptor than DDM
best substrate binding activity | 3.7 ± 0.09 nm | ~0.004 mM | ~10% | – | CCCCCCCCCCCSc1nc(NC(CO[C@@H]2O[C@H](CO)[C@@H](O)[C@H](O)[C@H]2O)(CO[C@@H]2O[C@H](CO)[C@@H](O)[C@H](O)[C@H]2O)CO[C@@H]2O[C@H](CO)[C@@H](O)[C@H](O)[C@H]2O)nc(SCCCCCCCCCCC)n1 [TTG-T11] | – | – | better in maintaining the ligand binding ability of the receptor than DDM
best substrate binding activity | 5.5 ± 0.20 nm | ~0.0035 mM | ~5% | – | CCCCCCCCCCCCSc1nc(NC(CO[C@@H]2O[C@H](CO)[C@@H](O)[C@H](O)[C@H]2O)(CO[C@@H]2O[C@H](CO)[C@@H](O)[C@H](O)[C@H]2O)CO[C@@H]2O[C@H](CO)[C@@H](O)[C@H](O)[C@H]2O)nc(SCCCCCCCCCCCC)n1 [TTG-T12] | – | – | better in maintaining the ligand binding ability of the receptor than DDM

SMILES | LeuT substrate binding properties over incubation [1] | Rh (nm) [2] | CMC [3] | solubility [5] | MOR melting point (Tm) (μ-opioid receptor (MOR)) | AtBOR1 thermal stability by FSEC (protein peak vs aggregation peak) (BOR1-GFP fusion protein) | MelB protein extraction efficiency at 0° C. [4] | β2AR long-term ligand binding retention [6]
CCCCCCCCCCCCO[C@@H]1O[C@H](CO)[C@@H](O[C@H]2O[C@H](CO)[C@@H](O)[C@H](O)[C@H]2O)[C@H](O)[C@H]1O [DDM, n-dodecyl-β-D-maltopyranoside, reference compound] | high initial activity, but the substrate binding ability sharply decreased with the passage of time | 3.4 ± 0.03 nm | ~0.17 mM | ~10% | – | significant reduction in the original homogeneous protein peak | high MelB protein extraction efficiency | –
CCCCCCCCCSc1nc(NC(CO[C@@H]2O[C@H](CO)[C@@H](O)[C@H](O)[C@H]2O)(CO[C@@H]2O[C@H](CO)[C@@H](O)[C@H](O)[C@H]2O)CO[C@@H]2O[C@H](CO)[C@@H](O)[C@H](O)[C@H]2O)nc(SCCCCCCCCC)n1 [TTG-T9] | – | 3.3 ± 0.11 nm | ~0.010 mM | ~10% | – | – | – | better in maintaining the ligand binding ability of the receptor than DDM
CCCCCCCCCCSc1nc(NC(CO[C@@H]2O[C@H](CO)[C@@H](O)[C@H](O)[C@H]2O)(CO[C@@H]2O[C@H](CO)[C@@H](O)[C@H](O)[C@H]2O)CO[C@@H]2O[C@H](CO)[C@@H](O)[C@H](O)[C@H]2O)nc(SCCCCCCCCCC)n1 [TTG-T10] | best substrate binding activity | 3.6 ± 0.10 nm | ~0.006 mM | ~10% | – | – | – | better in maintaining the ligand binding ability of the receptor than DDM
